# Assay results from patent US20220389061A1, “IMMUNOMODULATORS” (priority 2019, published 2022).
# pIC50: −log10 of the molar value. Starred links: 1 amine or outer side, 2 acyl side, 3 side chain; linkers in the order of their positions; H or OH if unused. Positions of bridges follow the written chain, without caps; N, C: chain ends. Non-standard residues stand in square brackets, D forms with d. Residues, ends and D or L forms follow the SMILES beside them. Groups on a side chain read outwards from the residue. *: point of attachment. Trp(1-CH2CO2Me) = COC(=O)Cn1cc(C[C@H](N)C(=O)O)c2ccccc21; Trp(1-CH2COOH) = N[C@@H](Cc1cn(CC(=O)O)c2ccccc12)C(=O)O; X66 = O=C([C@H](CCN/C(=N/c1ccccc1)c1ccccc1)N[*:1])[*:2]; X57 = O=C([C@H](CN/C(=N/c1ccccc1)c1ccccc1)N[*:1])[*:2]; Benzoyl(2-(4-MeOPh)) = COc1ccc(-c2ccccc2C(=O)*)cc1; NH(benzothiophen-5-yl) = c1cc2cc(N*)ccc2s1; X73 = FC(F)(F)c1cc(NC(=S)*)cc(C(F)(F)F)c1; X18 = O=[N+]([O-])c1ccc(NC(=S)*)c(Cl)c1; X65 = CC(C)(C)OC(=O)Nc1ccc(NC(=S)*)cc1; X13 = O=[N+]([O-])c1ccc(NC(=S)*)cc1; Hyp = O=C(O)[C@@H]1C[C@@H](O)CN1; X87 = FC(F)(F)c1ccccc1NC(=S)*; NMeNle = CCCC[C@H](NC)C(=O)O; X12 = S=C(Nc1ccc2ccccc2c1)*; X52 = c1ccc2c(N*)c[nH]c2c1; NMeA = CN[C@@H](C)C(=O)O; Dab = NCC[C@H](N)C(=O)O; Dap = NC[C@H](N)C(=O)O; CO = O=C([*:1])[*:2]
# Target: T1, PD-1/PD-L1 (Homo sapiens, UniProt Q9NZQ7)
# T1 construct: TVMV protease site linker (C); made in house; host or cells: HEK293T cells
# Experiment: PD-1/PD-L1 Homogenous Time-Resolved Fluorescence (HTRF) binding assay
# Settings: PD-L1-His 10 nM pre-incubated with inhibitor, PD-1-Ig 20 nM; read-out: HTRF IC50
# Method in brief: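 Compounds preincubated 15 min with PD-L1-His (10 nM final), then PD-1-Ig (20 nM final) added for 15 min in dPBS with 0.1% BSA, 0.05% Tween-20. Detection by Eu-cryptate anti-Ig (1 nM) and APC anti-His (20 nM) HTRF.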
# T1 sequence (Q9NZQ7 18-239): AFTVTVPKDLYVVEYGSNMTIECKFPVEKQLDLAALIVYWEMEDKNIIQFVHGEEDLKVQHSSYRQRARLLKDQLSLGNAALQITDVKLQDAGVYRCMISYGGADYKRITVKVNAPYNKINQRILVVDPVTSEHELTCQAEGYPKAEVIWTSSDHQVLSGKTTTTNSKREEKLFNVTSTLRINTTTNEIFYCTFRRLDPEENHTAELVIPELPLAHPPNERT
row,pIC50,Structure (SMILES)
1,7.85,CCCC[C@H]1C(=O)N(C)[C@@H](CCCC)C(=O)N[C@@H](CC(C)C)C(=O)N[C@H](C(=O)NCC(N)=O)CSCC(=O)N[C@@H](Cc2ccc(O)cc2)C(=O)N(C)[C@@H](C)C(=O)N[C@@H](CC(N)=O)C(=O)N2CCC[C@H]2C(=O)N[C@@H](CNC(=S)Nc2cc(C(F)(F)F)cc(C(F)(F)F)c2)C(=O)N[C@@H](CC(C)C)C(=O)N2C[C@H](O)C[C@H]2C(=O)N[C@@H](Cc2c[nH]c3ccccc23)C(=O)N[C@@H](CCN)C(=O)N[C@@H](Cc2cn(CC(=O)O)c3ccccc23)C(=O)N1C [Example 1136] ({CH2CO}-Y[NMeA]NP[Dap](X73)L[Hyp]W[Dab][Trp(1-CH2COOH)][NMeNle][NMeNle]LCG-NH2; thioether N-14)
2,9.22,CCCC[C@H]1C(=O)N(C)[C@@H](CCCC)C(=O)N[C@@H](CC(C)C)C(=O)N[C@H](C(=O)NCC(N)=O)CSCC(=O)N[C@@H](Cc2ccc(O)cc2)C(=O)N(C)[C@@H](C)C(=O)N[C@@H](CC(N)=O)C(=O)N2CCC[C@H]2C(=O)N[C@@H](CNC(=S)Nc2ccc3ccccc3c2)C(=O)N[C@@H](CC(C)C)C(=O)N2C[C@H](O)C[C@H]2C(=O)N[C@@H](Cc2c[nH]c3ccccc23)C(=O)N[C@@H](CCN)C(=O)N[C@@H](Cc2cn(CC(=O)O)c3ccccc23)C(=O)N1C [Example 3028] ({CH2CO}-Y[NMeA]NP[Dap](X12)L[Hyp]W[Dab][Trp(1-CH2COOH)][NMeNle][NMeNle]LCG-NH2; thioether N-14)
3,8.52,CCCC[C@H]1C(=O)N(C)[C@@H](CCCC)C(=O)N[C@@H](CC(C)C)C(=O)N[C@H](C(=O)NCC(N)=O)CSCC(=O)N[C@@H](Cc2ccc(O)cc2)C(=O)N(C)[C@@H](C)C(=O)N[C@@H](CC(N)=O)C(=O)N2CCC[C@H]2C(=O)N[C@@H](CNC(=S)Nc2ccccc2C(F)(F)F)C(=O)N[C@@H](CC(C)C)C(=O)N2C[C@H](O)C[C@H]2C(=O)N[C@@H](Cc2c[nH]c3ccccc23)C(=O)N[C@@H](CCNC(=S)Nc2ccccc2C(F)(F)F)C(=O)N[C@@H](Cc2cn(CC(=O)O)c3ccccc23)C(=O)N1C [Example 1016] ({CH2CO}-Y[NMeA]NP[Dap](X87)L[Hyp]W[Dab](X87)[Trp(1-CH2COOH)][NMeNle][NMeNle]LCG-NH2; thioether N-14)
4,8.57,CCCC[C@H]1C(=O)N(C)[C@@H](CCCC)C(=O)N[C@@H](CC(C)C)C(=O)N[C@H](C(=O)NCC(N)=O)CSCC(=O)N[C@@H](Cc2ccc(O)cc2)C(=O)N(C)[C@@H](C)C(=O)N[C@@H](CC(N)=O)C(=O)N2CCC[C@H]2C(=O)N[C@@H](CNC(=O)Nc2c[nH]c3ccccc23)C(=O)N[C@@H](CC(C)C)C(=O)N2C[C@H](O)C[C@H]2C(=O)N[C@@H](Cc2c[nH]c3ccccc23)C(=O)N[C@@H](CCNC(=O)Nc2c[nH]c3ccccc23)C(=O)N[C@@H](Cc2cn(CC(=O)O)c3ccccc23)C(=O)N1C [Example 3060] ({CH2CO}-Y[NMeA]NP[Dap]([CO-X52])L[Hyp]W[Dab]([CO-X52])[Trp(1-CH2COOH)][NMeNle][NMeNle]LCG-NH2; thioether N-14)
5,8.64,CCCC[C@H]1C(=O)N(C)[C@@H](CCCC)C(=O)N[C@@H](CC(C)C)C(=O)N[C@H](C(=O)NCC(N)=O)CSCC(=O)N[C@@H](Cc2ccc(O)cc2)C(=O)N(C)[C@@H](C)C(=O)N[C@@H](CC(N)=O)C(=O)N2CCC[C@H]2C(=O)N[C@@H](CNC(=S)Nc2ccc(NC(=O)OC(C)(C)C)cc2)C(=O)N[C@@H](CC(C)C)C(=O)N2C[C@H](O)C[C@H]2C(=O)N[C@@H](Cc2c[nH]c3ccccc23)C(=O)N[C@@H](CCNC(=S)Nc2ccc(NC(=O)OC(C)(C)C)cc2)C(=O)N[C@@H](Cc2cn(CC(=O)O)c3ccccc23)C(=O)N1C [Example 1041] ({CH2CO}-Y[NMeA]NP[Dap](X65)L[Hyp]W[Dab](X65)[Trp(1-CH2COOH)][NMeNle][NMeNle]LCG-NH2; thioether N-14)
6,8.12,CCCC[C@H]1C(=O)N(C)[C@@H](CCCC)C(=O)N[C@@H](CC(C)C)C(=O)N[C@H](C(=O)NCC(N)=O)CSCC(=O)N[C@@H](Cc2ccc(O)cc2)C(=O)N(C)[C@@H](C)C(=O)N[C@@H](CC(N)=O)C(=O)N2CCC[C@H]2C(=O)N[C@@H](CN/C(=N/c2ccccc2)c2ccccc2)C(=O)N[C@@H](CC(C)C)C(=O)N2C[C@H](O)C[C@H]2C(=O)N[C@@H](Cc2c[nH]c3ccccc23)C(=O)N[C@@H](CCN/C(=N/c2ccccc2)c2ccccc2)C(=O)N[C@@H](Cc2cn(CC(=O)O)c3ccccc23)C(=O)N1C [Example 1017] ({CH2CO}-Y[NMeA]NP[X57]L[Hyp]W[X66][Trp(1-CH2COOH)][NMeNle][NMeNle]LCG-NH2; thioether N-14)
7,8.49,CCCC[C@H]1C(=O)N(C)[C@@H](CCCC)C(=O)N[C@@H](CC(C)C)C(=O)N[C@H](C(=O)NCC(N)=O)CSCC(=O)N[C@@H](Cc2ccc(O)cc2)C(=O)N(C)[C@@H](C)C(=O)N[C@@H](CC(N)=O)C(=O)N2CCC[C@H]2C(=O)N[C@@H](CNC(=S)Nc2ccc([N+](=O)[O-])cc2)C(=O)N[C@@H](CC(C)C)C(=O)N2C[C@H](O)C[C@H]2C(=O)N[C@@H](Cc2c[nH]c3ccccc23)C(=O)N[C@@H](CCN)C(=O)N[C@@H](Cc2cn(CC(=O)O)c3ccccc23)C(=O)N1C [Example 1024] ({CH2CO}-Y[NMeA]NP[Dap](X13)L[Hyp]W[Dab][Trp(1-CH2COOH)][NMeNle][NMeNle]LCG-NH2; thioether N-14)
8,7.47,CCCC[C@H]1C(=O)N(C)[C@@H](CCCC)C(=O)N[C@@H](CC(C)C)C(=O)N[C@H](C(=O)NCC(N)=O)CSCC(=O)N[C@@H](Cc2ccc(O)cc2)C(=O)N(C)[C@@H](C)C(=O)N[C@@H](CC(N)=O)C(=O)N2CCC[C@H]2C(=O)N[C@@H](CNC(=O)Nc2ccc3sccc3c2)C(=O)N[C@@H](CC(C)C)C(=O)N2C[C@H](O)C[C@H]2C(=O)N[C@@H](Cc2c[nH]c3ccccc23)C(=O)N[C@@H](CCNC(=O)Nc2ccc3sccc3c2)C(=O)N[C@@H](Cc2cn(CC(=O)OC)c3ccccc23)C(=O)N1C [Example 3057] ({CH2CO}-Y[NMeA]NP[Dap]([CO-NH(benzothiophen-5-yl)])L[Hyp]W[Dab]([CO-NH(benzothiophen-5-yl)])[Trp(1-CH2CO2Me)][NMeNle][NMeNle]LCG-NH2; thioether N-14)
9,8.05,CCCC[C@H]1C(=O)N(C)[C@@H](CCCC)C(=O)N[C@@H](CC(C)C)C(=O)N[C@H](C(=O)NCC(N)=O)CSCC(=O)N[C@@H](Cc2ccc(O)cc2)C(=O)N(C)[C@@H](C)C(=O)N[C@@H](CC(N)=O)C(=O)N2CCC[C@H]2C(=O)N[C@@H](CNC(=S)Nc2ccc([N+](=O)[O-])cc2Cl)C(=O)N[C@@H](CC(C)C)C(=O)N2C[C@H](O)C[C@H]2C(=O)N[C@@H](Cc2c[nH]c3ccccc23)C(=O)N[C@@H](CCN)C(=O)N[C@@H](Cc2cn(CC(=O)O)c3ccccc23)C(=O)N1C [Example 1111] ({CH2CO}-Y[NMeA]NP[Dap](X18)L[Hyp]W[Dab][Trp(1-CH2COOH)][NMeNle][NMeNle]LCG-NH2; thioether N-14)

row,Structure (SMILES),pIC50
1,CCCC[C@H]1C(=O)N(C)[C@@H](CCCC)C(=O)N[C@@H](CC(C)C)C(=O)N[C@H](C(=O)NCC(N)=O)CSCC(=O)N[C@@H](Cc2ccc(O)cc2)C(=O)N(C)[C@@H](C)C(=O)N[C@@H](CC(N)=O)C(=O)N2CCC[C@H]2C(=O)N[C@@H](CNC(=O)c2ccccc2-c2ccc(OC)cc2)C(=O)N[C@@H](CC(C)C)C(=O)N2C[C@H](O)C[C@H]2C(=O)N[C@@H](Cc2c[nH]c3ccccc23)C(=O)N[C@@H](CCNC(=O)c2ccccc2-c2ccc(OC)cc2)C(=O)N[C@@H](Cc2cn(CC(=O)O)c3ccccc23)C(=O)N1C [Example 1095] ({CH2CO}-Y[NMeA]NP[Dap](Benzoyl(2-(4-MeOPh)))L[Hyp]W[Dab](Benzoyl(2-(4-MeOPh)))[Trp(1-CH2COOH)][NMeNle][NMeNle]LCG-NH2; thioether N-14),8.24
